Results taken from BigSolDB 2.1.

O=S(=O)(c1ccccc1)c1ccc(Cl)cc1
solubility (mole fraction)
Details	278.15 K	283.15 K	288.15 K	293.15 K	298.15 K	303.15 K	308.15 K	313.15 K	318.15 K	323.15 K
in ethanol	0.00091	0.00105	0.00121	0.00142	0.00166	0.00189	0.00221	0.00261	0.00301	0.00358
in isopropanol	0.00198	0.00236	0.00283	0.00338	0.00395	0.00468	0.00547	0.00629	0.00722	0.00838
in methanol	0.000276	0.000332	0.000401	0.00049	0.000572	0.000668	0.000781	0.0009	0.00105	0.00125
in n-propanol	0.00351	0.00411	0.00479	0.00555	0.00645	0.00754	0.00885	0.0102	0.0116	0.0137
in water	2.88e-06	3.77e-06	4.7e-06	5.95e-06	7.38e-06	9.03e-06	1.1e-05	1.34e-05	1.61e-05	1.94e-05
